Measured values published in US20070060558A1 (PALUMED S.A., priority 2004, published 2007).
Converted amounts (≈) assume the structure as drawn. Where two headings read alike, the source gives them in different places.

Key:
[1] = test system: H. influenzae CIP 102514; assay: Antibacterial activity (MIC/MBC); format: cell-based, Haemophilus influenzae
[2] = test system: S. pneumoniae PRSP CIP 104471; assay: Antibacterial activity (MIC/MBC); format: cell-based, Streptococcus pneumoniae
[3] = test system: E. faecalis VRE CIP 104676; assay: Antibacterial activity (MIC/MBC); format: cell-based, Enterococcus faecalis; settings: E. faecalis VRE CIP 104676
[4] = test system: Staphylococcus aureus MSSA CIP 4.83; assay: Antibacterial activity (MIC/MBC); format: cell-based; settings: S. aureus MSSA CIP 4.83; for MBC: read-out: MBC
[5] = test system: S. pneumoniae PRSP clinical isolate; assay: Antibacterial activity (MIC/MBC); format: cell-based, Streptococcus pneumoniae
[6] = Stability in solution at pH 7 (HPLC purity over time); format: physicochemical; settings: pH 7, 37° C.
Experimental: The stability of the aminoquinoline-cephalosporin_hybrid molecules given as examples was determined in solution at 37° C., at physiological pH (pH 7, phosphate buffer/acetonitrile, 75/25 v/v) and at acidic pH (pH 1, 0.1 M HCl/ethanol, 70/30 v/v) by high pressure liquid chromatography coupled to a UV-visible detector (Beckman Coulter ODS C18 column, 5 μm, 4.6×250 mm; eluents: A: 0.1% TFA, B: CH3CN/H2O 90/10 0.1% TFA, gradient: from 10% to 100% of B in 30 minutes, and then 100% of B for 10 minutes, flow rate 1 mL/minutes, λ=254 nm, volume injected: 10 μL).

[7] = Staphylococcus aureus, read-out: MIC
[8] = Haemophilus influenzae, CIP102514
[9] = Streptococcus pneumoniae, read-out: MIC
[10] = Enterococcus faecalis, read-out: MIC
[11] = Streptococcus pneumoniae, PRSP, read-out: MIC

| SMILES | MBC ([4]; Staphylococcus aureus) [µg/mL] | MIC [4, 7] [µg/mL] | MBC [1, 8] [µg/mL] | MIC [1, 8] [µg/mL] | MBC ([2]; Streptococcus pneumoniae) [µg/mL] | MIC [2, 9] [µg/mL] | MBC ([3]; Enterococcus faecalis) [µg/mL] | MIC [3, 10] [µg/mL] | MBC ([5]; Streptococcus pneumoniae) [µg/mL] | MIC [5, 11] [µg/mL] | Purity of the hybrid molecules (as a percentage) as a function of time (hours) ([6]; time 0 h) [%] | Purity of the hybrid molecules (as a percentage) as a function of time (hours) ([6]; time 1 h) [%] | Purity of the hybrid molecules (as a percentage) as a function of time (hours) ([6]; time 2 h) [%] | Purity of the hybrid molecules (as a percentage) as a function of time (hours) ([6]; time 4 h) [%] | Purity of the hybrid molecules (as a percentage) as a function of time (hours) ([6]; time 24 h) [%] | other results |
| --- | --- | --- | --- | --- | --- | --- | --- | --- | --- | --- | --- | --- | --- | --- | --- | --- |
| CC(=O)OCC1=C(C(=O)O)N2C(=O)[C@@H](N)[C@H]2SC1 [7-ACA, 7-aminocephalosporanic acid, reference compound] | – | – | – | – | – | – | – | – | – | – | – | – | – | – | – | MIC ([1]; H. influenzae CIP 102514): 50 µg/mL (≈ 184 µM); MIC [2]: 50 µg/mL (≈ 184 µM); MIC [3]: >50 µg/mL; MIC [4]: 50 µg/mL (≈ 184 µM); MIC [5]: 50 µg/mL (≈ 184 µM) |
| CC(C)(C)C(=O)OCOC(=O)[C@@H]1N2C(=O)[C@@H](NC(=O)C3CCN(c4ccnc5cc(Cl)ccc45)CC3)[C@H]2SC1(C)C [PA 1007, (2S,5R,6R)-6-{[1-(7-Chloroquinolin-4-yl)-piperidine-4-carbonyl]-amino}-3,3-dimethyl-7-oxo-4-thia-1-aza-bicyclo[3.2.0]heptane-2-carboxylic acid 2,2-dimethyl-propionyloxymethyl ester] | 0.49 (≈ 0.812 µM) | 0.012 (≈ 0.0199 µM) | – | – | – | – | – | – | – | – | – | – | – | – | – | – |
| CC(=O)OCC1=C(C(=O)O)N2C(=O)[C@@H](NC(=O)CCNc3ccnc4cc(Cl)ccc34)[C@H]2SC1 [PA 1037] | > 50 | 0.39 (≈ 0.772 µM) | 25 (≈ 49.5 µM) | 6.25 (≈ 12.4 µM) | 3.12 (≈ 6.18 µM) | 1.56 (≈ 3.09 µM) | 25 (≈ 49.5 µM) | 6.25 (≈ 12.4 µM) | 6.25 (≈ 12.4 µM) | 3.12 (≈ 6.18 µM) | – | – | – | – | – | – |
| CC(=O)OCC1=C(C(=O)O)N2C(=O)[C@@H](NC(=O)CCCNc3ccnc4cc(Cl)ccc34)[C@H]2SC1 [PA 1053, (6R,7R-3-Acetoxymethyl-7-[4-7-chloroquinolin-4-ylamino)-butyrylamino]-8-oxo-5-thia-1-aza-bicyclo[4.2.0]oct-2-ene-2-carboxylic acid] | > 50 | 0.78 (≈ 1.5 µM) | 25 (≈ 48.2 µM) | 6.25 (≈ 12 µM) | 3.12 (≈ 6.01 µM) | 1.56 (≈ 3.01 µM) | > 50 | 25 (≈ 48.2 µM) | 6.25 (≈ 12 µM) | 3.12 (≈ 6.01 µM) | – | – | – | – | – | – |
| CC(=O)OCC1=C(C(=O)O)N2C(=O)[C@@H](NC(=O)C3CCN(c4ccnc5cc(Cl)ccc45)CC3)[C@H]2SC1.Cl [PA 1074] | 1.56 | 0.78 | – | – | 50 | 25 | > 50 | 50 | 50 | 25 | 100 | 100 | 100 | 100 | 87 | MBC ([1]; Haemophilus influenzae, CIP102514, H. influenzae CIP 102514, read-out: MBC): > 50 µg/mL; MIC ([1]; Haemophilus influenzae, CIP102514, H. influenzae CIP 102514, read-out: MIC): 50 µg/mL; Purity of the hybrid molecules (as a percentage) as a function of time (hours) ([6]; time 6 h): 100%; Purity of the hybrid molecules (as a percentage) as a function of time (hours) ([6]; time 8 h): 97%; Purity of the hybrid molecules (as a percentage) as a function of time (hours) ([6]; time 15 h): 88% |
| CC(=O)OCC1=C(C(=O)O)N2C(=O)[C@@H](NC(=O)CNc3ccnc4cc(Cl)ccc34)[C@H]2[S+]([O-])C1.Cl (stereo partly drawn) [PA 1088, (6R,7R-3-Acetoxymethyl-7-[2-7-chloroquinolin-4-ylamino)acetylamino]-5,8-dioxo-5λ^4-thia-1-aza-bicyclo[4.2.0]oct-2-ene-2-carboxylic acid hydrochloride] | – | – | – | – | – | – | – | – | – | – | 100 | 100 | 100 | 100 | 81 | – |
